Assay results published in article PMC11325555, “Interaction of Bisphenol A and Its Analogs with Estrogen and Androgen Receptor from Atlantic Cod (Gadus morhua)” (Environmental Science & Technology, 2024).

Assays:
[1] = biological target: T1, Atlantic cod estrogen receptor alpha (gmEra) LBD (Gadus morhua, UniProt U5ILH7); assay: Luciferase reporter gene assay, gmEra antagonism (antiestrogenic activity), coexposure with 3 nM EE2; assay type: cell-based; details: for antiestrogenic effect on gmEra, result in words: coexposure with EE2 (3 nM, EC20)
T1 sequence (U5ILH7 170-455): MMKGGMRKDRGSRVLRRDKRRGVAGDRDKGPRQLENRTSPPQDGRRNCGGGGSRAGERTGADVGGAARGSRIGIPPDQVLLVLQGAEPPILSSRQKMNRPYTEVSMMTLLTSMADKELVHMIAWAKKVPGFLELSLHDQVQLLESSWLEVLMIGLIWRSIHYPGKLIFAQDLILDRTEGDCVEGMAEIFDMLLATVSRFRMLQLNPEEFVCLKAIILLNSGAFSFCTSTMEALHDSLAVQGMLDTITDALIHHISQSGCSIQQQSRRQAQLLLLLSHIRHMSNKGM
Experimental: (§1) Ligand activation of gmEra and gmAra was studied with a luciferase reporter gene assay in COS-7 cells transiently transfected with the pCMX-GAL4(DBD)-gmEra(LBD) or pCMX-GAL4(DBD)-gmAra(LBD) plasmid by using the TransIT-LT1 reagent (TransIT-LT1 Transfection Reagent, Mirus). Cells were seeded into 96-well plates (5000 cells/well) and incubated for 24 h before cotransfection with the plasmid mixture (100 ng/well). The plasmid mixture contained GAL4-UAS luciferase reporter plasmid (tk-(MH100)x4 luc), the pCMX-GAL4(DBD)-gmEra(LBD) or pCMX-GAL4(DBD)-gmAra(LBD) receptor plasmids (2:1 reporter:receptor plasmid mass ratio), and a plasmid constitutively producing the β-galactosidase enzyme used for normalization of transfection efficiency (pCMV- β-Gal). […] The maximum DMSO/methanol concentrations in the exposure wells were 0.5% (v/v) in DMEM medium without phenol red (Sigma-Aldrich). After exposure, cells were lysed, and luciferase and beta-galactosidase activities were measured as luminescence and absorbance (420 nm) after the addition of luciferin and ONPG substrates, respectively, using an Enspire Multimode plate reader (PerkinElmer, Waltham, Massachusetts, USA).
To investigate potential antiestrogenic effects, COS-7 cells transiently expressing gmEra LBD were exposed to the 12 bisphenols in binary mixtures with a fixed concentration of EE2 (3 nM, corresponding to EC20) (Figure 2 and Table 1).
(§2) The dose–response curves were created using nonlinear regression and the four-parameter logistic fit in Graphpad Prism v.9. *p < 0.05 versus solvent control by ANOVA and Dunnett’s multiple comparison post hoc test.

[2] = system: Er-mediated synthesis of Vtg in Atlantic cod PCLS; assay: Vitellogenin ELISA in media of exposed precision-cut liver slices (PCLS); assay type: cell-based, Atlantic cod (Gadus morhua); details: 96 h; for concentration at which maximum Vtg levels were observed: 1, 10, 100 μM tested; for Vtg synthesis in PCLS, result in words: 1, 10, 100 μM bisphenols or 0.1, 1, 10 nM EE2, Vtg in media by ELISA
Experimental: PCLS culturing and exposure assays were performed essentially as described previously,[42],[56] with the modifications described below. Juvenile Atlantic cod were killed by a blow to the head, and the liver was dissected out and placed in a Petri dish containing ice-cold PCLS buffer (122 mM NaCl, 4.8 mM KCl, 1.2 mM MgSO4, 11 mM Na2HPO4, 3.7 mM NaHCO3, […]). The liver was then cut into small tissue blocks (approximately 3 cm long, 2 cm wide, and 1–3 cm high) and kept in ice-cold complete culture medium (L-15 medium supplemented with 10% FBS and 1× antibiotic-antimycotic solution). For slicing, the tissue block was fixed on the specimen plate of a Leica vibrating blade microtome VT1200 (Leica, Wetzlar, Germany) using Loctite Super Glue (Clas Ohlson, Bergen, Norway), and 250 μm thick tissue slices were cut (under ice-cold PCLS buffer) and kept in a Petri dish with ice-cold complete culture medium. Using a sterile razor blade, the tissue slices (2 × 3 cm) were then divided into smaller pieces (approximately 4 × 4 mm) and distributed into a 12-well cell culture plate (Sarstedt, Nümbrecht, Germany), each well containing 6 slices and 2 mL of complete culture medium. The PCLS were preincubated at 10 °C for 2 h before exposure. After preincubation, 1 mL of the medium was removed from each well and replaced by 1 mL of fresh complete culture medium containing 2x the final desired concentration and incubated at 10 °C for 96 h with shaking at 50 rpm. […] At the end of the exposure, slices were collected with tweezers and rinsed briefly in cold PBS. Excess PBS was removed by carefully touching a dry surface of the culture plate with the slice 4 times before measuring the weight in a preweighed cryotube. The slices were then snap-frozen in liquid N2 and stored at −80 °C. The media was also sampled and stored at −80 °C for viability (LDH) assay and vitellogenin ELISA.
Vitellogenin (Vtg) in media collected from exposed PCLS was quantified using the Atlantic Cod Vitellogenin ELISA kit (Biosense Laboratories AS, Bergen, Norway) according to manufacturer’s instructions. Vtg was quantified in 100 μL of undiluted media and normalized to the weight of the liver tissue. Statistical analysis of ELISA data was performed with GraphPad Prism Software version 9 (GraphPad Prism, La Jolla, CA, USA) by using one-way ANOVA followed by Dunnett’s test (for normally distributed data) or Friedman test followed by Dunn’s test (for non-normally distributed data), as described previously for PCLS experiments (Yadetie et al.[42]).
Figure 5 Relative vitellogenin production in Atlantic cod precision-cut liver slices (PCLS) exposed to bisphenols and EE2. PCLS were exposed to 1, 10, and 100 μM bisphenols or 0.1, 1, and 10 nM EE2, for 96 h. EE2 was included as positive control for activation of the gmEra signaling pathway. Levels of induced Vtg in the PCLS media were measured using ELISA (Cod Vitellogenin ELISA kit, Biosense Laboratories AS). The data represents mean ± SEM of fold change (compared to solvent control) of Vtg levels from 4 to 10 fish. n = 8–10 for all bisphenols except for BADGE (n = 4). Asterisks denote significant changes (p < 0.05) compared to solvent control.

[3] = biological target: T1, Atlantic cod estrogen receptor alpha (gmEra) LBD; assay: Luciferase reporter gene assay, gmEra agonism (estrogenic activity) in transfected COS-7 cells
Experimental: as §1
Luciferase reporter gene assays were established with COS-7 cells transiently producing the LBD of gmEra (Figure S1) for evaluating the estrogenic potential of 12 bisphenols.
COS-7 cells transiently transfected with gmEra-LBD were exposed to EE2 (open circles), BPA (black circles), and 11 different BPA analogs (red squares and as indicated) at increasing concentrations. Responses are presented as mean fold activation in luciferase activity in comparison to solvent-exposed cells ± SEM from three independent experiments with three technical replicates (n = 9). The dose–response curves were created using nonlinear regression and the four parameter logistic fit in Graphpad Prism v.9. For comparison, the dose–response curve of BPA (black line) is indicated together with each individual BP tested (red line). *p < 0.05 versus solvent control by one-way ANOVA and Dunnett’s multiple comparison post hoc test.

COS-7 cells = assay: Cytotoxicity toward COS-7 cells (resazurin and CFDA-AM assays); details: 24 h; for concentration that affected COS-7 cell viability: binary combination with 0.003 μM EE2
From the text: The cytotoxicity of the test compounds toward COS-7 cells was monitored by measuring the metabolic activity and membrane integrity through the conversion of resazurin and 5-carboxyfluorescein diacetate acetoxymethyl ester (CFDA-AM), respectively, as described previously by Pérez-Albaladejo et al.[54] […]
used as a negative control.
Figure S2. Assessing metabolic activity (resazurin) and cell membrane integrity (CFDA-AM) in COS-7 cells after BP exposures. COS-7 cells were exposed to three concentrations of each BP, as well as three concentrations […]
exposed at 37 °C and 5 % CO2 for 24 hours. Cytotoxicity is indicated by a reduction in the fluorescent signal (denoted as % Cell survival) relative to the solvent control (DMSO, dotted line) adjusted to 100 %. A reduction in cell viability exceeding 20 % is generally regarded as cytotoxic (indicated with a red dotted line) (ISO, I. 2009.
10993–5: 2009 Biological evaluation of medical devices—part 5: tests for in vitro cytotoxicity. International Organization for Standardization, Geneva.).
(1 picture or pasted object on this page, not shown here)

[4] = biological target: T2, Atlantic cod androgen receptor alpha (gmAra) LBD (Gadus morhua, UniProt D5FIC7); assay: Luciferase reporter gene assay, gmAra antagonism (antiandrogenic activity), coexposure with 5 nM testosterone; assay type: cell-based; details: for effect on testosterone-mediated gmAra activity, result in words: BPs 0.003–50 μM with 5 nM testosterone; for IC50: gmAra IC50, in the presence of 5 nM testosterone (EC20)
T2 sequence (D5FIC7 409-718): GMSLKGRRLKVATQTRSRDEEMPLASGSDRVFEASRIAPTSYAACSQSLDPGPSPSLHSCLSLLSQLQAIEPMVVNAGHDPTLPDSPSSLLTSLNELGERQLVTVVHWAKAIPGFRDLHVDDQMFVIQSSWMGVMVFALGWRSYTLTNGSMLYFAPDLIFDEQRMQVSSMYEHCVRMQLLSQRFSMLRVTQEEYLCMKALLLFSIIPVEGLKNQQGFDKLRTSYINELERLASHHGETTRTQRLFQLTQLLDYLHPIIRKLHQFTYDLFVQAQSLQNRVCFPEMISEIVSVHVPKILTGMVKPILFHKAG
Experimental: as §1, §2

[5] = biological target: T2, Atlantic cod androgen receptor alpha (gmAra) LBD; assay: Luciferase reporter gene assay, gmAra agonism (androgenic activity) in transfected COS-7 cells; details: fold activation in luciferase activity vs solvent control; 24 h exposure; a = plateau not reached
Experimental: as §1
Figure 3 Androgenic activity of bisphenols. COS-7 cells were transiently transfected with gmAra LBD and exposed individually to 12 bisphenol analogs at increasing concentrations. […] The dose–response curves were created using nonlinear regression and the four-parameter logistic fit in Graphpad Prism v.9. For comparison, the dose–response curve of BPA (black line) is indicated together with each individual BP tested (red line). *p < 0.05 versus solvent control by one-way ANOVA and Dunnett’s multiple comparison post hoc test.

[6] = gmEra EC50, four-parameter logistic fit, 24 h exposure
[7] = antiandrogenic reporter assay conditions (with testosterone), highest concentration used

`Oc1ccc(C(c2ccc(O)cc2)(C(F)(F)F)C(F)(F)F)cc1` [BPAF] was tested, and the “antiestrogenic effect on gmEra, result in words” value (from here on “antiestrogenic effect on gmEra”) [1] was “no antiestrogenic effects”, the “concentration at which maximum Vtg levels were observed” value [2] was 10 µM and the EC50 [3, 6] was 0.23 µM. The “cytotoxic concentration in COS-7 cells” value (COS-7 cells; African green monkey) was 50 µM.
With `CCC(C)(c1ccc(O)cc1)c1ccc(O)cc1` [BPB] the “antiestrogenic effect on gmEra” value [1] was “no antiestrogenic effects” and the EC50 [3, 6] was 1.6 µM.
`Oc1ccc(C(=C(Cl)Cl)c2ccc(O)cc2)cc1` [BPC2] showed an IC50 [1] of 0.06 µM and an EC50 [3, 6] of 0.2 µM.
`Oc1ccc(Cc2ccc(O)cc2)cc1` [BPF] was tested, and the “antiestrogenic effect on gmEra” value [1] was “no antiestrogenic effects”, the “Vtg synthesis in PCLS, result in words” value [2] was “induced the highest Vtg-levels ex vivo” and the EC50 [3, 6] was 3.8 µM.
`CC(C)c1cc(C(C)(C)c2ccc(O)c(C(C)C)c2)ccc1O` [BPG] was tested, and the “Vtg synthesis in PCLS, result in words” value [2] was “able to induce Vtg synthesis in PCLS”, the “effect on testosterone-mediated gmAra activity, result in words” value [4] was “significantly decrease the testosterone-mediated Ara-activity” and the IC50 [4] was 0.2 µM. For the same compound, the “cytotoxic concentration in COS-7 cells” value (COS-7 cells; [7]) was 50 µM and the “concentration that affected COS-7 cell viability” value (COS-7 cells; highest concentration used) was 50 µM.
`O=S(=O)(c1ccc(O)cc1)c1ccc(O)cc1` [BPS] was tested, and the “antiestrogenic effect on gmEra” value [1] was “no antiestrogenic effects” and the EC50 [3, 6] was 83.3 µM.
With `CC1CC(C)(C)CC(c2ccc(O)cc2)(c2ccc(O)cc2)C1` (centres unmarked) [BPTMC] the “concentration at which maximum Vtg levels were observed” value [2] was 10 µM, the “effect on testosterone-mediated gmAra activity, result in words” value [4] was “significantly decrease the testosterone-mediated Ara-activity” and the IC50 [4] was 1.75 µM. The “cytotoxic concentration in COS-7 cells” value (COS-7 cells; [7]) was 50 µM and the “concentration that affected COS-7 cell viability” value (COS-7 cells; highest concentration used) was 50 µM.
`Oc1ccc(C2(c3ccc(O)cc3)CCCCC2)cc1` [BPZ] was tested, and the “Vtg synthesis in PCLS, result in words” value [2] was “only moderate and not statistically significant”, the “concentration at which maximum Vtg levels were observed” value [2] was 10 µM and the “effect on testosterone-mediated gmAra activity, result in words” value [4] was “significantly decrease the testosterone-mediated Ara-activity”. The IC50 [4] was 0.88 µM, the “effect on testosterone-mediated gmAra activity at lower concentrations, result in words” value ([4]; lower concentrations used (3–80 nM) with 5 nM testosterone) was “significant increases in gmAr activity” and the “cytotoxic concentration in COS-7 cells” value (COS-7 cells; [7]) was 50 µM. For the same compound, the “concentration that affected COS-7 cell viability” value (COS-7 cells; highest concentration used) was 50 µM.
In the case of `C#C[C@]1(O)CC[C@H]2[C@@H]3CCc4cc(O)ccc4[C@H]3CC[C@@]21C` [EE2, 17α-Ethynylestradiol, reference compound], the “Vtg synthesis in PCLS, result in words” value [2] is reported as “increased Vtg-levels in the media in a dose-dependent manner”, the maximal fold induction ([3]; COS-7, monkey, 24 h, read-out: gmEra Emax) is reported as 80 and the “potency toward gmEra relative to BPA (times more potent)” value ([3]; EE2 compared with BPA) is reported as ~10^3. For the same compound, the EC50 [3, 6] was 0.007 µM, the EC50 ([3]; gmEra EC50, value given in text) was 0.0068 µM and the “gmEra REP50 (relative potency EC50, EC50-bisphenol A/EC50-bisphenol X)” value ([3]; relative to BPA) was 271.
In the case of `C[C@]12CC[C@H]3[C@@H](CCC4=CC(=O)CC[C@@]43C)[C@@H]1CC[C@@H]2O` [T, testosterone, reference compound], the “gmAra Emax” value [5] is reported as 42.1 fold activation.
`CC(C)C(=O)Nc1ccc([N+](=O)[O-])c(C(F)(F)F)c1` [flutamide, reference compound] gave an IC50 [4] of about 0.71 µM.
